These molecules were tested against T1, human histamine H3 receptor (Homo sapiens, UniProt Q9Y5N1) (assay: H3 GTPγS assay (SPA method), histamine H3 in vitro assay). Conditions: GTPγ[35S] binding to membranes of cells expressing human H3; antagonist mode with R-γ-Me-Histamine at EC80 (30 nM); in one embodiment HCl salts tested; read-out: Potency (functional potency as indicated by IC50).
T1 construct: host or cells: cells expressing the human H3 receptor
Format: biochemical
Experimental: H3 GTPγS assay (SPA method) was performed at EuroScreen (Belgium, ES-392-C) using conventional methods. Briefly, cells expressing the human histamine H3 receptor were homogenized in 15 mM Tris-HCl pH 7.5, 2 mM MgCl2, 0.3 mM EDTA, and 1 mM EGTA. Membranes were washed twice in the above tris buffer, collected by centrifugation (40,000×g, 25 min), and re-suspended in 75 mM Tris-HCl pH 7.5, 12.5 mM MgCl2, 0.3 mM EDTA, 1 mM EGTA, and 250 mM sucrose. Membranes were frozen in liquid nitrogen until use. On the day of the assay, membranes were thawed and diluted in assay buffer (20 mM HEPES pH 7.4, 100 mM NaCl, 10 μg/ml saponin, 1 mM MgCl2) to give 500 μg/ml and mixed (v/v) with GDP in assay buffer for a final GDP concentration of 10 μM and incubated on ice for at least 15 min. PVT-WGA beads (Amersham, RPNQ001) were diluted in assay buffer at 50 mg/mL and mixed with GTPγ[^35S] (Amersham, SJ1308) diluted in assay buffer to give ˜25,000 dpm/10 μL and mixed vol/vol just before the start of the reaction. The reaction was started by adding 50 μL of test compound, 20 μL of the membranes:GDP mix, 10 μL of buffer, and 20 μL of the GTPγ[^35S]:beads mix in a 96 well plate Optiplate™ (PerkinElmer, 6005299) covered with topseal (TopCount™, PerkinElmer), mixed with an orbital shaker for 2 min, incubated for 1 hour at room temperature, centrifuged for 10 min at 2000 rpm, incubated for 1 h at room temperature, and counted for 1 min in a TopCount™ reader (PerkinElmer). Dose response curves and IC50 values (concentration to inhibit the reaction by 50%) were calculated by nonlinear regression using XLfit software (IDBS).
For antagonists testing, 10 μL of a reference agonist (R-γ-Me-Histamine) instead of 10 μL buffer was added at a concentration corresponding to the EC80 (30 nM). Control ligands were R-γ-Me-Histamine (Tocris, 0569), Imetit (Sigma, I-135), Thioperamide (Tocris, 0644), and Clobenpropit (Tocris, 0754) diluted in assay buffer.
The compounds provided herein were tested in the histamine H3 in vitro assay. In one embodiment, the respective HCl salts of the compounds provided herein were prepared using standard chemical procedures and tested in the histamine H3 in vitro assay.

T1 sequence (Q9Y5N1 whole entry): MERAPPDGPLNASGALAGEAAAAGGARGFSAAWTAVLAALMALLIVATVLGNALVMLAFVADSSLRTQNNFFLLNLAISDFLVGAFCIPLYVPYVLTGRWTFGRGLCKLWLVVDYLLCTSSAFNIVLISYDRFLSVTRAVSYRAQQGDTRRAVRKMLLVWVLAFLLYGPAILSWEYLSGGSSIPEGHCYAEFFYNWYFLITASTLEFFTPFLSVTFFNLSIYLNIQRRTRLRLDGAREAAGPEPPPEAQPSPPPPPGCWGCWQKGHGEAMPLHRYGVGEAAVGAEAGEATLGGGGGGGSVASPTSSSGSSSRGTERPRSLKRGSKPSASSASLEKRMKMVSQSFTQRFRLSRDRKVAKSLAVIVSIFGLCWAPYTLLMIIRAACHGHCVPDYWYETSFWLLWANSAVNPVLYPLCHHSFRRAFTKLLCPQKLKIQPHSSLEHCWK

| SMILES | IC50 [nM] |
| --- | --- |
| c1cnc(N2CCc3cc4nc5n(c4cc3C2)CCN(C2CCC2)CC5)cn1 [Compound 190, 9-cyclobutyl-2-(pyrazin-2-yl)-2,3,4,7,8,9,10,11-octahydro-1H-[1,4]diazepino[1′,7′:1,2]imidazo[4,5-g]isoquinoline] | ≤ 10 |
| O=C1CCc2cc(-c3ccc4c(c3)nc3n4CCN(C4CCC4)CC3)ccc2N1 [Compound 216, 6-(3-cyclobutyl-2,3,4,5-tetrahydro-1H-benzo[4,5]imidazo[1,2-d][1,4]diazepin-8-yl)-3,4-dihydroquinolin-2(1H)-one] | ≤ 10 |
| CN(C)Cc1ccc2nc3n(c2c1)CCN(C1CCC1)CC3 [Compound 87] | ≤ 10 |
| c1cc2c(cc1N1CCC(N3CCOCC3)CC1)nc1n2CCN(C2CCC2)CC1 [Compound 225, 4-(1-(3-cyclobutyl-2,3,4,5-tetrahydro-1H-benzo[4,5]imidazo[1,2-d][1,4]diazepin-8-yl)piperidin-4-yl)morpholine] | ≤ 10 |
| CN(C)C(=O)c1ccc2c(c1)nc1n2CCN(C2CCC2)CC1 [Compound 57] | ≤ 1000 |
| FC1(F)CCN(c2ccc3c(c2)nc2n3CCN(C3CCC3)CC2)C1 [Compound 182, 3-cyclobutyl-8-(3,3-difluoropyrrolidin-1-yl)-2,3,4,5-tetrahydro-1H-benzo[4,5]imidazo[1,2-d][1,4]diazepine] | ≤ 100 |
| c1ccc(N2CCN(c3ccc4c(c3)nc3n4CCN(C4CCC4)CC3)CC2)nc1 [Compound 230, 3-cyclobutyl-8-(4-(pyridin-2-yl)piperazin-1-yl)-2,3,4,5-tetrahydro-1H-benzo[4,5]imidazo[1,2-d][1,4]diazepine] | ≤ 10 |
| c1ncn(-c2ccc3c(c2)nc2n3CCN(C3CCC3)CC2)n1 [Compound 152, 3-cyclobutyl-8-(1H-1,2,4-triazol-1-yl)-2,3,4,5-tetrahydro-1H-benzo[4,5]imidazo[1,2-d][1,4]diazepine] | ≤ 100 |
| c1nc2ccc(-c3ccc4c(c3)nc3n4CCN(C4CCC4)CC3)cn2n1 [Compound 203, 8-([1,2,4]triazolo[1,5-a]pyridin-6-yl)-3-cyclobutyl-2,3,4,5-tetrahydro-1H-benzo[4,5]imidazo[1,2-d][1,4]diazepine] | ≤ 100 |
| Cn1cnc2cc(-c3ccc4c(c3)nc3n4CCN(C4CCC4)CC3)cnc21 [Compound 202, 3-cyclobutyl-8-(3-methyl-3H-imidazo[4,5-b]pyridin-6-yl)-2,3,4,5-tetrahydro-1H-benzo[4,5]imidazo[1,2-d][1,4]diazepine] | ≤ 10 |
| Cc1nc2ccccc2n1-c1ccc2c(c1)nc1n2CCN(C2CCC2)CC1 [Compound 207, 3-cyclobutyl-8-(2-methyl-1H-benzo[d]imidazol-1-yl)-2,3,4,5-tetrahydro-1H-benzo[4,5]imidazo[1,2-d][1,4]diazepine] | ≤ 10 |
| CC(=O)Nc1ccc(-c2ccc3nc4n(c3c2)CCN(C2CCC2)CC4)cc1 [Compound 42] | ≤ 1000 |
| N#Cc1ccc(-c2cnc3c(c2)nc2n3CCN(C3CCC3)CC2)cc1 [Compound 237, 4-(7-aza-3-cyclobutyl-2,3,4,5-tetrahydro-1H-[1,4]diazepino[1,7-a]benzimidazol-9-yl)benzonitrile] | ≤ 100 |
| N#Cc1ccc(CNc2ccc3c(c2)nc2n3CCN(C3CCC3)CC2)cc1 [Compound 63] | ≤ 100 |
| c1ccc(C2CCN(c3ccc4c(c3)nc3n4CCN(C4CCC4)CC3)CC2)cc1 [Compound 227, 3-cyclobutyl-8-(4-phenylpiperidin-1-yl)-2,3,4,5-tetrahydro-1H-benzo[4,5]imidazo[1,2-d][1,4]diazepine] | ≤ 100 |
| COc1ccnc(OCc2ccc3nc4n(c3c2)CCN(C2CCC2)CC4)n1 [Compound 111] | ≤ 1000 |
| c1cnc(Nc2ccc3c(c2)nc2n3CCN(C3CCC3)CC2)cn1 [Compound 65, 3-cyclobutyl-N-(pyrazin-2-yl)-2,3,4,5-tetrahydro-1H-[1,4]diazepino[1,7-a]benzimidazol-9-amine] | ≤ 100 |
| Cc1cn2cc(-c3ccc4c(c3)nc3n4CCN(C4CCC4)CC3)ccc2n1 [Compound 195, 3-cyclobutyl-8-(2-methylimidazo[1,2-a]pyridin-6-yl)-2,3,4,5-tetrahydro-1H-benzo[4,5]imidazo[1,2-d][1,4]diazepine] | ≤ 10 |
| Fc1ccc(N2CCN(c3ccc4c(c3)nc3n4CCN(C4CCC4)CC3)CC2)cc1 [Compound 231, 3-cyclobutyl-8-(4-(4-fluorophenyl)piperazin-1-yl)-2,3,4,5-tetrahydro-1H-benzo[4,5]imidazo[1,2-d][1,4]diazepine] | ≤ 10 |
| O=C(C1CC1)N1CCN(c2ccc3c(c2)nc2n3CCN(C3CCC3)CC2)CC1 [Compound 170, (4-(3-cyclobutyl-2,3,4,5-tetrahydro-1H-benzo[4,5]imidazo[1,2-d][1,4]diazepin-8-yl)piperazin-1-yl)(cyclopropyl)methanone] | ≤ 10 |

| SMILES | IC50 [nM] |
| --- | --- |
| Clc1ccc2c(c1)nc1n2CCN(Cc2cnc[nH]2)CC1 [Compound 15] | ≥ 1000 |
| CN1CCC(N2CCc3nc4cc(-c5ccc6[nH]ccc6c5)ccc4n3CC2)CC1 [Compound 13] | ≥ 1000 |
| c1cnc(-c2ccc3c(c2)nc2n3CCN(C3CCC3)CC2)nc1 [Compound 123, 3-cyclobutyl-8-(pyrimidin-2-yl)-2,3,4,5-tetrahydro-1H-benzo[4,5]imidazo[1,2-d][1,4]diazepine] | ≤ 100 |
| CC(C1CCC1)N1CCc2nc3cc(-c4ccc5[nH]ccc5c4)ccc3n2CC1 (stereo not shown) [Compound 10] | ≥ 1000 |
| O=C(c1ccc2c(c1)nc1n2CCN(C2CCC2)CC1)c1cnccn1 [Compound 121, (3-cyclobutyl-2,3,4,5-tetrahydro-1H-benzo[4,5]imidazo[1,2-d][1,4]diazepin-8-yl)(pyrazin-2-yl)methanone] | ≤ 100 |
| CC(=O)Nc1ccc(-c2ccc3c(c2)nc2n3CCN(Cc3cnc[nH]3)CC2)cc1 [Compound 19] | ≥ 1000 |
| c1cc2nc(-c3ccc4c(c3)nc3n4CCN(C4CCC4)CC3)ccc2[nH]1 [Compound 197, 3-cyclobutyl-8-(1H-pyrrolo[3,2-b]pyridin-5-yl)-2,3,4,5-tetrahydro-1H-benzo[4,5]imidazo[1,2-d][1,4]diazepine] | ≤ 10 |
| N#Cc1ccc(COc2ccc3c(c2)nc2n3CCN(C3CCC3)CC2)cc1 [Compound 53] | ≤ 10 |
| O=C(C1CCC1)N1CCCC(c2ccc3c(c2)nc2n3CCN(C3CCC3)CC2)C1 (stereo not shown) [Compound 174] | ≤ 10 |
| N#Cc1ccc(-c2ccc3c(c2)nc2n3CCN(Cc3cnc[nH]3)CC2)cc1 [Compound 18] | ≥ 1000 |
| c1cc2c(cc1-c1cnc3[nH]ncc3c1)nc1n2CCN(C2CCC2)CC1 [Compound 223, 3-cyclobutyl-8-(1H-pyrazolo[3,4-b]pyridin-5-yl)-2,3,4,5-tetrahydro-1H-benzo[4,5]imidazo[1,2-d][1,4]diazepine] | ≤ 10 |
| N#Cc1ccc2nc3n(c2c1)CCN(C1CCC1)CC3 [Compound 82] | ≥ 1000 |
| CN1CCC(N2CCc3nc4cc(-c5ccc(CN)cc5)ccc4n3CC2)CC1 [Compound 16] | ≥ 1000 |
| FC(F)(F)c1ccc(-c2ccc3c(c2)nc2n3CCN(C3CCC3)CC2)cc1 [Compound 213, 3-cyclobutyl-8-(4-(trifluoromethyl)phenyl)-2,3,4,5-tetrahydro-1H-benzo[4,5]imidazo[1,2-d][1,4]diazepine] | ≤ 100 |
| Fc1ccc2c(c1)CN(c1ccc3c(c1)nc1n3CCN(C3CCC3)CC1)CC2 [Compound 177, 3-cyclobutyl-8-(7-fluoro-3,4-dihydroisoquinolin-2(1H)-yl)-2,3,4,5-tetrahydro-1H-benzo[4,5]imidazo[1,2-d][1,4]diazepine] | ≤ 10 |
| CC(C1CCC1)N1CCc2nc3cc(-c4ccc(C#N)cc4)ccc3n2CC1 (stereo not shown) [Compound 6] | ≤ 100 |
| COc1nccc(-c2ccc3c(c2)nc2n3CCN(C3CCC3)CC2)n1 [Compound 132, 3-cyclobutyl-8-(2-methoxypyrimidin-4-yl)-2,3,4,5-tetrahydro-1H-benzo[4,5]imidazo[1,2-d][1,4]diazepine] | ≤ 100 |
| Brc1ccc2c(c1)nc1n2CCN(C2CCC2)CC1 [Compound 21] | ≤ 1000 |
| CN1CCN(c2ccc3c(c2)nc2n3CCN(C3CCC3)CC2)CC1 [Compound 73, 3-cyclobutyl-9-(4-methylpiperazin-1-yl)-2,3,4,5-tetrahydro-1H-[1,4]diazepino[1,7-a]benzimidazole] | ≤ 10 |
| FC1CCN(c2ccc3c(c2)nc2n3CCN(C3CCC3)CC2)CC1 [Compound 179, 3-cyclobutyl-8-(4-fluoropiperidin-1-yl)-2,3,4,5-tetrahydro-1H-benzo[4,5]imidazo[1,2-d][1,4]diazepine] | ≤ 10 |

Reference: patent publication US8404670B2 (Sunovion Pharmaceuticals Inc., priority 2009, dated 2013)
